Tests used:
Assay type in all cases: in vivo
Sabra mice [1] = experiment: Zymosan-induced inflammatory paw swelling, measured with a caliper; settings: zymosan in left hind paw, paw swelling by caliper, 300 milligrams formulation (cannabinoid in propylene glycol, xylitol solid phase) in 15 milliliters water, oral gavage
Method: (§1) The activity of formulations set forth in this disclosure is assayed in Sabra mice. 300 milligrams of a formulation is combined with 15 milliliters of water and administered by oral gavage. Each formulation comprises a liquid phase that contains propylene glycol and a solid phase that contains xylitol. The liquid phase contains a cannabinoid selected from CBD, THC, Δ8-THC, CBG, CBDV, THCV, Δ8-THCV, CBGV, CBC, CBN, tetrahydrocannabiphorol, perrottetinene, nabilone, parahexyl, HUM-217, and HU-331, which is dissolved in the propylene glycol, and controls lack any cannabinoid.
(§2) Zymosan is injected into the left hind paws of each mouse to induce pain, inflammation, and tumor necrosis factor (“TNF”) signaling. Inflammatory paw swelling is measured with a caliper. Pain is measured with a Von Frey hair aesthesiometer. Plasma TNF is measured […].

Sabra mice [2] = experiment: Zymosan-induced paw pain, Von Frey hair aesthesiometer; settings: zymosan in left hind paw, 300 milligrams formulation (cannabinoid in propylene glycol, xylitol solid phase) in 15 milliliters water, oral gavage
Method: as §1, §2

[3] = system: tumor necrosis factor (“TNF”) signaling; experiment: Plasma TNF after zymosan injection, measured by HPLC; settings: Sabra mice, zymosan in left hind paw, 300 milligrams formulation (cannabinoid in propylene glycol, xylitol solid phase) in 15 milliliters water, oral gavage
Method: as §1, §2

Structure (SMILES) | reduction in inflammation relative to controls (Sabra mice [1]) | reduction in pain relative to controls (Sabra mice [2]) | reduction in TNF signaling relative to controls [3]
CCCCCc1cc(O)c2c(c1)OC(C)(CCC=C(C)C)C=C2 (stereo not drawn) [CBC] | no detectable effect | no detectable effect | no detectable effect
C=C(C)[C@@H]1CCC(C)=C[C@H]1c1c(O)cc(CCC)cc1O [CBDV] | robust reduction | robust reduction | robust reduction
C=C(C)[C@@H]1CCC(C)=C[C@H]1c1c(O)cc(CCCCC)cc1O [CBD] | robust reduction | robust reduction | robust reduction
CCCCCc1cc(O)c(C/C=C(\C)CCC=C(C)C)c(O)c1 [CBG] | modest reduction | modest reduction | modest reduction
CCCCCc1cc(O)c2c(c1)OC(C)(C)c1ccc(C)cc1-2 [CBN] | modest reduction | modest reduction | modest reduction
C=C(C)[C@@H]1CCC(C)=C[C@H]1C1=C(O)C(=O)C(CCCCC)=CC1=O [HU-331] | robust reduction | robust reduction | robust reduction
CCCc1cc(O)c2c(c1)OC(C)(C)[C@@H]1CCC(C)=C[C@@H]21 [THCV] | modest reduction | modest reduction | modest reduction
CCCCCc1cc(O)c2c(c1)OC(C)(C)[C@@H]1CCC(C)=C[C@@H]21 [THC] | modest reduction | modest reduction | modest reduction
CCCCCCC(C)(C)c1cc(O)c2c(c1)OC(C)(C)C1CCC(=O)CC21 (stereo not drawn) [nabilone] | modest reduction | modest reduction | modest reduction
CCCCCCc1cc(O)c2c(c1)OC(C)(C)C1=C2CC(C)CC1 (stereo not drawn) [parahexyl] | modest reduction | modest reduction | modest reduction
CC1=C[C@H]2c3c(O)cc(CCc4ccccc4)cc3OC(C)(C)[C@H]2CC1 [perrottetinene] | modest reduction | modest reduction | modest reduction
CCCCCCCc1cc(O)c2c(c1)OC(C)(C)[C@@H]1CCC(C)=C[C@@H]21 [tetrahydrocannabiphorol] | modest reduction | modest reduction | modest reduction
CCCc1cc(O)c2c(c1)OC(C)(C)[C@@H]1CC=C(C)C[C@@H]21 [Δ8-THCV] | modest reduction | modest reduction | modest reduction
CCCCCc1cc(O)c2c(c1)OC(C)(C)[C@@H]1CC=C(C)C[C@@H]21 [Δ8-THC] | modest reduction | modest reduction | modest reduction

Reference: patent US12349706B2, “Compositions and methods related to excipients and cannabinoid formulations” (Natural Extraction Systems, LLC, priority 2020, dated 2025)
